Bounds are passed on as bounds.

Chain of DOT1L(1-416) (Q8TEK3 1-416): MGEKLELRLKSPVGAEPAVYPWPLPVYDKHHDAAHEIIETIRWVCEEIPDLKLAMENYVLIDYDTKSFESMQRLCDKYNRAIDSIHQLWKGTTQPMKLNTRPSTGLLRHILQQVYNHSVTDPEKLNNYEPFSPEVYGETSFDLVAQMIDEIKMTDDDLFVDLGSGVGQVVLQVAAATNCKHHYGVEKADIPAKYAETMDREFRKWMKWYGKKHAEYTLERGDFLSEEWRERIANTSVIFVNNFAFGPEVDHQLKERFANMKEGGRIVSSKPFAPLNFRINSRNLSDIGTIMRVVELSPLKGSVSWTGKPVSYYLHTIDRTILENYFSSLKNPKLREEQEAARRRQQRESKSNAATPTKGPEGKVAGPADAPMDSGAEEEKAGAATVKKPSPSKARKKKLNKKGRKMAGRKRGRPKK

One assay concerns the target DOT1L(1-416) (Homo sapiens, UniProt Q8TEK3). Kind of assay: Determination of IC50: DOT1L(1-416) methyltransferase assay, 3H-SAM, oligonucleosome substrate, Flashplate. It is filed as biochemical. The settings on record: class symbols; read-out: DOT1L IC50. Here is the method:
Determination of IC50. Test compounds were serially diluted 3 fold in DMSO for 10 points and 1 μl was plated in a 384 well microtiter plate. […] 10 μl per well of substrate mix (same assay buffer with 200 nM S-[methyl-^3H]-adenosyl-L methionine, 600 nM of unlabeled […], and 20 nM oligonueleosome) was added to initiate the reaction. Reaction was incubated for 120 minutes at room temperature and quenched with 10 μl per well of 100 μM S-methyl-adenosyl-L methionine. For detection, substrate from 50 μl of reaction was immobilized on a 384 well Streptavidin coated Flashplate (Perkin Elmer) (also coated with 0.2% polyethyleneimine) and read on a Top Count scintillation counter (Perkin Elmer).
For `CN(C[C@H]1O[C@@H](n2ccc3c(N)ncnc32)[C@H](O)[C@@H]1O)[C@H]1C[C@H](CCc2nc3cc(OC(F)(F)F)ccc3[nH]2)C1` [Compound 95, (2R,3R,4S,5R)-2-(4-amino-7H-pyrrolo[2,3-d]pyrimidin-7-yl)-5-((methyl((1s,3R)-3-(2-(5-(trifluoromethoxy)-1H-benzo[d]imidazol-2-yl)ethyl)eyclobutyl)amino)methyl) tetrahydrofuran-3,4-diol], the half-inhibitory concentration (IC50) was under 100 nM.

As to `CN(CC1CC(Cc2nc3cc(C(F)(F)F)ccc3[nH]2)C1)C[C@H]1C[C@@H](n2ccc3c(N)ncnc32)[C@H](O)[C@@H]1O` (stereo partly drawn) [Compound 18, (1R,2S,3R,5R)-3-{4-amino-7H-pyrrolo[2,3-d]pyrimidin-7-yl}-5-({methyl[(3-{[5-(trifluoromethyl)-1H-1,3-benzodiazol-2-yl]methyl}cyclobutyl)methyl]amino}methyl)cyclopentane-1,2-diol], the IC50 fell in the range of 100 to 1000 nM.

`CN(C[C@H]1O[C@@H](n2cnc3c(N)ncnc32)[C@H](O)[C@@H]1O)C1CC(CCc2nc3cc(C4COC4)ccc3[nH]2)C1` (stereo partly drawn) [Compound 64, (2R,3R,4S,5R)-2-(6-amino-9H-purin-9-yl)-5-((methyl(3-(2-(5-(oxetan-3-yl)-1H-benzo[d]imidazol-2-yl)ethyl)cyclobutyl)amino)methyl)tetrahydrofuran-3,4-diol]: the 50% inhibitory concentration (IC50) lay in the range of 100 to 1000 nM. With `CC(C)N(C[C@H]1O[C@@H](n2cnc3c(N)ncnc32)[C@H](O)[C@@H]1O)[C@H]1C[C@H](CCc2nc3cc(C4(C#N)CC4)ccc3[nH]2)C1` [Compound 136, 1-(2-(2-((1R,3s)-3-((((2R,3S,4R,5R)-5-(6-amino-9H-purin-9-yl)-3,4-dihydroxytetrahydro-furan-2-yl)methyl)(isopropyl)amino)cyclobutyl)ethyl)-1H-benzo[d]imidazol-5-yl)cyclo-propanecarbonitrile], the IC50 was under 100 nM. Take `CC(C)N(C[C@H]1C[C@@H](n2ccc3c(N)ncnc32)[C@H](O)[C@@H]1O)[C@H]1C[C@@H](CCc2nc3cc(C(C)(C)C)ccc3[nH]2)C1` [Compound 41, (1R,2S,3R,5R)-3-(4-amino-7H-pyrrolo[2,3-d]pyrimidin-7-yl)-5-((((1r,3S)-3-(2-(5-(tert-butyl)-1H-benzo[d]imidazol-2-yl)ethyl)cyclobutyl)(isopropyl)amino)methyl)cyclopentane-1,2-diol]: the IC50 is under 100 nM. `CC(C)N(C[C@H]1C[C@@H](n2cnc3c(N)ncnc32)[C@H](O)[C@@H]1O)C1CC(CCc2nc3cc(C(C)(C)C)ccc3[nH]2)C1` (stereo partly drawn) [Compound 50, (1R,2S,3R,5R)-3-(6-amino-9H-purin-9-yl)-5-(((3-(2-(5-(tert-butyl)-1H-benzo[d]imidazol-2-yl)ethyl)cyclobutyl)(isopropyl)amino)methyl)cyclopentane-1,2-diol]: the half-inhibitory concentration (IC50) was under 100 nM. Turning to `CCN(C[C@H]1O[C@@H](n2cnc3c(N)ncnc32)[C@H](O)[C@@H]1O)[C@H]1C[C@H](CCc2nc3cc(C(C)(C)C)ccc3[nH]2)C1` [Compound 74, (2R,3R,4S,5R)-2-(6-amino-9H-purin-9-yl)-5-((((1s,3R)-3-(2-(5-(tert-butyl)-1H-benzo[d]imidazol-2-yl)ethyl)cyclobutyl)(ethyl)amino)methyl)tetrahydrofuran-3,4-diol], the IC50 is under 100 nM. On the same count and under the same terms, the figure for `CN(C[C@H]1O[C@@H](n2cnc3c(N)ncnc32)[C@H](O)[C@@H]1O)[C@H]1C[C@@H](CCc2nc3cc(C4CC4)ccc3[nH]2)C1` [Compound 133, (2R,3R,4S,5R)-2-(6-amino-9H-purin-9-yl)-5-((((1r,3S)-3-(2-(5-cyclopropyl-1H-benzo[d]imidazol-2-yl)ethyl)cyclobutyl) (methyl)amino)methyl) tetrahydrofuran-3,4-diol] is under 100 nM; for `CC(C)N(C[C@H]1C[C@@H](n2ccc3c(N)ncnc32)[C@H](O)[C@@H]1O)C1CC(CCc2nc3cc(OC(F)(F)F)ccc3[nH]2)C1` (stereo partly drawn) [Compound 56, (1R,2S,3R,5R)-3-(4-amino-7H-pyrrolo[2,3-d]pyrimidin-7-yl)-5-((isopropyl(3-(2-(5-(trifluoromethoxy)-1H-benzo[d]imidazol-2-yl)ethyl)cyclobutyl)amino)methyl)cyclopentane-1,2-diol] it is under 100 nM; for `CC(C)(C)c1ccc2[nH]c(CC[C@H]3C[C@H](N(C[C@H]4O[C@@H](n5ccc6c(N)ncnc65)[C@H](O)[C@@H]4O)CC(F)(F)F)C3)nc2c1` [Compound 77, (2R,3R,4S,5R)-2-(4-amino-7H-pyrrolo[2,3-d]pyrimidin-7-yl)-5-((((1s,3R)-3-(2-(5-(tert-butyl)-1H-benzo[d]imidazol-2-yl)ethyl)cyclobutyl)(2,2,2-trifluoroethyl)amino)methyl)tetrahydrofuran-3,4-diol] it is 100 to 1000 nM. Regarding `CC(C)N(C[C@H]1O[C@@H](n2cnc3c(N)ncnc32)[C@H](O)[C@@H]1O)[C@H]1C[C@@H](CCc2nc3cc(CC(F)(F)F)ccc3[nH]2)C1` [Compound 124, (2R,3R,4S,5R)-2-(6-amino-9H-purin-9-yl)-5-((isopropyl((1r,3S)-3-(2-(5-(2,2,2-trifluoroethyl)-1H-benzo[d]imidazol-2-yl)ethyl)cyclobutyl)amino)methyl) tetrahydrofuran-3,4-diol], the concentration for half-maximal inhibition (IC50) was under 100 nM. On to `CC(C)N(C[C@H]1O[C@@H](n2cnc3c(N)ncnc32)[C@H](O)[C@@H]1O)[C@H]1C[C@@H](CCc2nc3cc(C4(C#N)CC4)ccc3[nH]2)C1` [Compound 135, 1-(2-(2-((1S,3r)-3-((((2R,3S,4R,5R)-5-(6-amino-9H-purin-9-yl)-3,4-dihydroxytetrahydro-furan-2-yl)methyl)(isopropyl)amino)cyclobutyl)ethyl)-1H-benzo[d]imidazol-5-yl)cyclo-propanecarbonitrile], for which the IC50 was under 100 nM.

For the compound `CC(C)N(C[C@H]1O[C@@H](n2cnc3c(N)ncnc32)[C@H](O)[C@@H]1O)[C@H]1C[C@H](CCc2nc3cc(CC(F)(F)F)ccc3[nH]2)C1` [Compound 123, (2R,3R,4S,5R)-2-(6-amino-9H-purin-9-yl)-5-((isopropyl((1s,3R)-3-(2-(5-(2,2,2-trifluoroethyl)-1H-benzo[d]imidazol-2-yl)ethyl)cyclobutyl)amino)methyl) tetrahydrofuran-3,4-diol], the IC50 is under 100 nM.

Turning to `CN(C[C@H]1C[C@@H](n2ccc3c(N)ncnc32)[C@H](O)[C@@H]1O)C1CC(CCc2nc3cc(Cl)c(Cl)cc3[nH]2)C1` (stereo partly drawn) [Compound 23, (1R,2S,3R,5R)-3-(4-amino-7H-pyrrolo[2,3-d]pyrimidin-7-yl)-5-(((3-(2-(5,6-dichloro-1H-benzo[d]imidazol-2-yl)ethyl)cyclobutyl)(methyl)amino)methyl)cyclopentane-1,2-diol], the IC50 is under 100 nM. The same measure, in the same setting: the figure for `COCC(C)(C)c1ccc2[nH]c(CCC3CC(N(C)C[C@H]4O[C@@H](n5cnc6c(N)ncnc65)[C@H](O)[C@@H]4O)C3)nc2c1` (stereo partly drawn) [Compound 140, (2R,3R,4S,5R)-2-(6-amino-9H-purin-9-yl)-5-(((3-(2-(5-(1-methoxy-2-methylpropan-2-yl)-1H-benzo[d]imidazol-2-yl)ethyl)cyclobutyl) (methyl)amino)methyl) tetrahydrofuran-3,4-diol] is under 100 nM. Regarding `CN(C[C@H]1C[C@@H](n2ccc3c(N)ncnc32)[C@H](O)[C@@H]1O)[C@H]1C[C@@H](CCc2nc3cc(C(F)(F)F)ccc3[nH]2)C1` [Compound 10, (1R,2S,3R,5R)-3-(4-amino-7H-pyrrolo[2,3-d]pyrimidin-7-yl)-5-((methyl((1r,3S)-3-(2-(5-(trifluoromethyl)-1H-benzo[d]imidazol-2-yl)ethyl)cyclobutyl)amino)methyl)cyclopentane-1,2-diol], the IC50 is under 100 nM. Turning to `CC(C)N(C[C@H]1O[C@@H](n2cnc3c(N)ncnc32)[C@H](O)[C@@H]1O)C1CC(CCc2nc3cc(C4CC4)ccc3[nH]2)C1` (stereo partly drawn) [Compound 112, (2R,3R,4S,5R)-2-(6-amino-9H-purin-9-yl)-5-(((3-(2-(5-cyclopropyl-1H-benzo[d]imidazol-2-yl)ethyl)cyclobutyl) (isopropyl)amino)methyl)tetrahydrofuran-3,4-diol], the 50% inhibitory concentration (IC50) was under 100 nM. As for `CC(C)N(C[C@H]1O[C@@H](n2ccc3c(N)ncnc32)[C@H](O)[C@@H]1O)[C@H]1C[C@H](CCc2nc3cc(C(C)(C)C)ccc3[nH]2)C1` [Compound 75, (2R,3R,4S,5R)-2-(4-amino-7H-pyrrolo[2,3-d]pyrimidin-7-yl)-5-((((1s,3R)-3-(2-(5-(tert-butyl)-1H-benzo[d]imidazol-2-yl)ethyl)cyclobutyl)(isopropyl)amino)methyl)tetrahydrofuran-3,4-diol], the 50% inhibitory concentration (IC50) was under 100 nM. As to `CC(C)N(C[C@H]1C[C@@H](n2ccc3c(N)ncnc32)[C@H](O)[C@@H]1O)[C@H]1C[C@H](CCc2nc3cc(OC(F)(F)F)ccc3[nH]2)C1` [Compound 61, (1R,2S,3R,5R)-3-(4-amino-7H-pyrrolo[2,3-d]pyrimidin-7-yl)-5-((isopropyl((1s,3R)-3-(2-(5-(trifluoromethoxy)-1H-benzo[d]imidazol-2-yl)ethyl)cyclobutyl)amino)methyl)cyclopentane-1,2-diol], the 50% inhibitory concentration (IC50) is 100 to 1000 nM. On to `CN(C[C@H]1O[C@@H](n2cnc3c(N)ncnc32)[C@H](O)[C@@H]1O)[C@H]1C[C@H](CCc2nc3cc(C4(C#N)CC4)ccc3[nH]2)C1` [Compound 138, 1-(2-(2-((1R,3s)-3-((((2R,3S,4R,5R)-5-(6-amino-9H-purin-9-yl)-3,4-dihydroxytetrahydro-furan-2-yl)methyl)(methyl)amino)cyclobutyl)ethyl)-1H-benzo[d]imidazol-5-yl)cyclo-propanecarbonitrile], for which the IC50 was under 100 nM.

The assay is the same for the next values; noted with them: read-out: DOT1L IC50.
Consider `CC(C)N(C[C@H]1O[C@@H](n2ccc3c(N)ncnc32)[C@H](O)[C@@H]1O)[C@H]1C[C@H](CCc2nc3cc(C(C)(C)C)ccc3[nH]2)C1` [Compound 75, (2R,3R,4S,5R)-2-(4-amino-7H-pyrrolo[2,3-d]pyrimidin-7-yl)-5-((((1s,3R)-3-(2-(5-(tert-butyl)-1H-benzo[d]imidazol-2-yl)ethyl)cyclobutyl)(isopropyl)amino)methyl)tetrahydrofuran-3,4-diol], for which the IC50 was 0.59 nM.

The record behind these values is patent US8580762B2, “Substituted purine and 7-deazapurine compounds” (Epizyme, Inc., priority 2010, dated 2013).
